The subject of assay [1] is NCI-H1975. The assay can be described thus: Antiproliferative activity against human NCI-H1975 cells expressing EGFR T790M mutant after 72 hrs by SRB assay. Type of assay: functional, cell-based. As to conditions: NCI-H1975, 72 h. On the technique in general: The SRB assay estimates cell density from bound dye.
Assay [2] deals with Epidermal growth factor receptor (Homo sapiens, UniProt P00533, L858M/T790M). The assay can be described thus: Inhibition of EGFR T790M/[…] double mutant (unknown origin) expressed in baculovirus expression system using poly (Glu, Tyr) 4:1 as substrate after 60 mins by ELISA. On the technique in general: An ELISA detects its analyte on a solid surface through an enzyme-linked reagent.

Assay [3] addresses T1, Epidermal growth factor receptor (Homo sapiens, UniProt P00533). The assay can be described thus: Inhibition of wild type EGFR (unknown origin) expressed in baculovirus expression system using poly (Glu, Tyr) 4:1 as substrate after 60 mins by ELISA.
For assay [4], the system named is A-431. Put plainly: Antiproliferative activity against human A431 cells after 72 hrs by SRB assay. As to conditions: A-431, 72 h. Type of assay: functional, cell-based.
Assay [5] deals with T1, Epidermal growth factor receptor. Put plainly: Inhibition of EGF-induced EGFR phosphorylation in human A431 cells assessed as decrease in ERK phosphorylation at 0.01 to 10 uM incubated for 1 hr prior to EGF induction measured after 10 mins by Western blotting analysis. Type of assay: cell-based. Conditions: A-431. (In general: Immunoblotting shows a protein as a band on a membrane.)

The target is the same in assay [6]. The assay can be described thus: Inhibition of EGF-induced EGFR phosphorylation in human A431 cells assessed as decrease in AKT phosphorylation at 0.01 to 10 uM incubated for 1 hr prior to EGF induction measured after 10 mins by Western blotting analysis. Conditions: A-431. Format: cell-based.
Assay [7] shares this target. Put plainly: Inhibition of EGF-induced EGFR phosphorylation in human A431 cells at 0.01 uM incubated for 1 hr prior to EGF induction measured after 10 mins by Western blotting analysis. Type of assay: cell-based. As to conditions: A-431.
For assay [8] the target is unchanged. Put plainly: Inhibition of EGF-induced EGFR phosphorylation in human A431 cells incubated for 1 hr prior to EGF induction measured after 10 mins by Western blotting analysis. Format: cell-based. Conditions: A-431.
Assay [9] concerns Epidermal growth factor receptor (Homo sapiens), P00533 [T790M]. Put plainly: Inhibition of EGF-induced EGFR T790M mutant autophosphorylation in human NCI-H1975 cells at 10 uM incubated for 1 hr prior to EGF induction measured after 10 mins by Western blotting analysis. Format: cell-based.
For assay [10] the test system is unchanged. Put plainly: Inhibition of EGF-induced EGFR T790M mutant phosphorylation in human NCI-H1975 cells assessed as AKT phosphorylation at < 10 uM incubated for 1 hr prior to EGF induction measured after 10 mins by Western blotting analysis. Format: cell-based.
For assay [11] the test system is unchanged. Put plainly: Inhibition of EGF-induced EGFR T790M mutant phosphorylation in human NCI-H1975 cells assessed as ERK phosphorylation at < 10 uM incubated for 1 hr prior to EGF induction measured after 10 mins by Western blotting analysis. Type of assay: cell-based.

The source of these data is ChEMBL document CHEMBL3091333, “Design, synthesis and biological evaluation of novel 4-anilinoquinazolines with C-6 urea-linked side chains as inhibitors of the epidermal growth factor receptor” (Bioorg Med Chem, 2013).

By IC50 is commonly meant the midpoint of a concentration-inhibition curve. High values mean lower potency, low ones higher potency.

Activity calls are given as the source filed them. The rule behind the calls is not given here.

Epidermal growth factor receptor (Homo sapiens), P00533 [T790M], sequence (P00533 whole entry T790M): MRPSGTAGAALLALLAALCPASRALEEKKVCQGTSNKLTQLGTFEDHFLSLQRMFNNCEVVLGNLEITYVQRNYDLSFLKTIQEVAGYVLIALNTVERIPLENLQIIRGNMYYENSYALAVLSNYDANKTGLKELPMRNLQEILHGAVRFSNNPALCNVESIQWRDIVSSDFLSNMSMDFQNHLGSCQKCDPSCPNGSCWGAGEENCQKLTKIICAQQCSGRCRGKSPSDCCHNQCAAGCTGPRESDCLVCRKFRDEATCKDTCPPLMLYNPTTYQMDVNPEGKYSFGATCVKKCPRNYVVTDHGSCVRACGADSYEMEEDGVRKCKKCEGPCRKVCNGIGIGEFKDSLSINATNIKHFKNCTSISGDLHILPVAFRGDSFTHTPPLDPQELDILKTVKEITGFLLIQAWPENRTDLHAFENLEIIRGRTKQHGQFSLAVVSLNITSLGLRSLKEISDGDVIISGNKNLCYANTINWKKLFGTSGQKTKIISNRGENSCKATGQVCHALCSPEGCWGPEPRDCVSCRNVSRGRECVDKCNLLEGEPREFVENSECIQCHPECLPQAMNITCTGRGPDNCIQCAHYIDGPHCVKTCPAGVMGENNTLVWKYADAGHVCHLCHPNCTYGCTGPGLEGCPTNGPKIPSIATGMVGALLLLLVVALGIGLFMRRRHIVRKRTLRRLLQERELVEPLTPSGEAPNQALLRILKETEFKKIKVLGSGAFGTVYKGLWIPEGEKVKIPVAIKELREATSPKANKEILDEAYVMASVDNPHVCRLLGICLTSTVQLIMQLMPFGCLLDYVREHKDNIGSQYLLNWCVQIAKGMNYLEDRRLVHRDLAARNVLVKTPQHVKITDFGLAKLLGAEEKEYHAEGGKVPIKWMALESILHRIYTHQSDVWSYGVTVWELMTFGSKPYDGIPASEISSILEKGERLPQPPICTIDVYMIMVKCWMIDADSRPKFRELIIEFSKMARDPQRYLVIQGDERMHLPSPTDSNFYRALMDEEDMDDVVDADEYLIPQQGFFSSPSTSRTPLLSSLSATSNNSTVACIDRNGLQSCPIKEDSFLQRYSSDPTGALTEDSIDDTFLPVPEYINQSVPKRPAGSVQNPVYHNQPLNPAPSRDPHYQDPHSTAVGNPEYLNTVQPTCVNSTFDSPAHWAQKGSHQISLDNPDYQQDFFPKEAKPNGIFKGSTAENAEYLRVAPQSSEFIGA
Epidermal growth factor receptor (Homo sapiens, UniProt P00533, L858M/T790M), sequence (P00533 25-1210 T790M/L858M limits assumed): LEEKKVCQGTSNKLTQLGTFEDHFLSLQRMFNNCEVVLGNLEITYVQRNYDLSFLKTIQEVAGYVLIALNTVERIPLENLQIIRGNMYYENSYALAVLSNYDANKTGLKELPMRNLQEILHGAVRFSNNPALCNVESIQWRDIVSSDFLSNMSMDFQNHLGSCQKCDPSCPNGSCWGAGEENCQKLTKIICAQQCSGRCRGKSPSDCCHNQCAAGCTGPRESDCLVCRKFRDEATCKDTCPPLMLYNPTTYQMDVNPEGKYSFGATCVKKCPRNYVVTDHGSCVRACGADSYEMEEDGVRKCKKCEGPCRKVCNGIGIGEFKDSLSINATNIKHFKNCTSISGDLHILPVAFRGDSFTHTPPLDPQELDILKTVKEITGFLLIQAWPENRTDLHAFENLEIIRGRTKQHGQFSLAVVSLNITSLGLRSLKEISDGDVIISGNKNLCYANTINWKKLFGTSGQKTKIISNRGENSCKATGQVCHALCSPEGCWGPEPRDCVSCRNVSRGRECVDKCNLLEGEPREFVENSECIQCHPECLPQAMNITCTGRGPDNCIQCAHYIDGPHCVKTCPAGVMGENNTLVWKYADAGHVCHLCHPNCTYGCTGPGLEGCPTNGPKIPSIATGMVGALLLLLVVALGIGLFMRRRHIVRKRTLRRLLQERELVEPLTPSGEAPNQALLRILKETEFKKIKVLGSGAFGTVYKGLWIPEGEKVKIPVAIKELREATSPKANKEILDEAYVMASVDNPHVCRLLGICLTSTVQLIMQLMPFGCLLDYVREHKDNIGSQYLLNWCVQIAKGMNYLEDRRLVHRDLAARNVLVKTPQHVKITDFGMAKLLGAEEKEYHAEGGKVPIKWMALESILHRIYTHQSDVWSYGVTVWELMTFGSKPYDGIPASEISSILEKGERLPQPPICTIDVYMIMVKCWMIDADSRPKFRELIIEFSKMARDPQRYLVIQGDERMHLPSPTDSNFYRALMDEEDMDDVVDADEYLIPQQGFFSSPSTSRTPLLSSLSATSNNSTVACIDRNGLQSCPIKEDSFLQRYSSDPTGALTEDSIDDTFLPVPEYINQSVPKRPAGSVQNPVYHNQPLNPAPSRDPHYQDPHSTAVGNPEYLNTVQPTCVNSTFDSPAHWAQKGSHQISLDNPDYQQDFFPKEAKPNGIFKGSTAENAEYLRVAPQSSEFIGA
T1 sequence (P00533 whole entry): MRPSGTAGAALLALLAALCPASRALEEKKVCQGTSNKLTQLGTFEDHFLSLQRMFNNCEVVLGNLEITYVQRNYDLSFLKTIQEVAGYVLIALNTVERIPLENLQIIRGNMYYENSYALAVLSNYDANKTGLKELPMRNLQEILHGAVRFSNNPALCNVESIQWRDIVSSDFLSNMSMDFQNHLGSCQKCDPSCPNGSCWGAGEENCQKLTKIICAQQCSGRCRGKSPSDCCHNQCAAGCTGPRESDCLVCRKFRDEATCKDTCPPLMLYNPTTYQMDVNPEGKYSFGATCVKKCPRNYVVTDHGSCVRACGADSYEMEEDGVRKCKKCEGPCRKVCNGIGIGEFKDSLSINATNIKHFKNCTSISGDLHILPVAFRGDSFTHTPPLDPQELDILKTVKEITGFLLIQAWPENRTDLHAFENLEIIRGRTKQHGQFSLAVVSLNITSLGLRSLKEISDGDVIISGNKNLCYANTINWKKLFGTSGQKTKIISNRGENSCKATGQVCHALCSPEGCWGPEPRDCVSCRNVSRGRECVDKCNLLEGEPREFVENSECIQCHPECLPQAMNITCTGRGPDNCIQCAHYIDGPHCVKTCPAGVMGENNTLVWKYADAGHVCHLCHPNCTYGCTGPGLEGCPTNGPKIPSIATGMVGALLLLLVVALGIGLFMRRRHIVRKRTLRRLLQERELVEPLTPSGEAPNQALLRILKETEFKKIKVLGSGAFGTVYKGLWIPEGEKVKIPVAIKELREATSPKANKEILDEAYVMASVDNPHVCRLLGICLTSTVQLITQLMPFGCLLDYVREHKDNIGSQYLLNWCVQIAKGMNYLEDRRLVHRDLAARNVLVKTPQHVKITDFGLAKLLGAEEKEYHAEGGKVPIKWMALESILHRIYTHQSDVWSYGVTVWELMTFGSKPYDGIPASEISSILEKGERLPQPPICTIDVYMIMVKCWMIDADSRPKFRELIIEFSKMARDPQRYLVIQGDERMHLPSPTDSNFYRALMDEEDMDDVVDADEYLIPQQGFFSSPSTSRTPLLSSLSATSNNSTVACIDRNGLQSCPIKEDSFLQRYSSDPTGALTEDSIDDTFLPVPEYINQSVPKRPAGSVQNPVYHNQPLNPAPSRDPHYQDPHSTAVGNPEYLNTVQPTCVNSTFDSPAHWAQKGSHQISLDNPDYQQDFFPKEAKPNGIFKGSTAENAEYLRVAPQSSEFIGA

Take `O=C(Nc1cc2c(Nc3ccc(F)c(Cl)c3)ncnc2cc1O[C@H]1CCOC1)N1CCN(CCO)CC1`: the IC50 in assay [1] was determined as 18200 nM; in assay [2], 4210 nM; in [3], 331 nM; in assay [4], 1130 nM.

Turning to `CN1CCN(C(=O)Nc2cc3c(Nc4ccc(F)c(Cl)c4)ncnc3cc2O[C@H]2CCOC2)CC1`, the IC50 in [1] came out at 12300 nM; in assay [2], 5580 nM; in [3], 464 nM; in assay [4] it was 675 nM.

On to `COCCNC(=O)Nc1cc2c(Nc3ccc(F)c(Cl)c3)ncnc2cc1O[C@H]1CCOC1`, for which the IC50 turned out to be 8300 nM in [1], 3560 nM in assay [2], 479 nM in [3] and 387 nM in [4].

In the case of `COC(CCNC(=O)Nc1cc2c(Nc3ccc(F)c(Cl)c3)ncnc2cc1O[C@H]1CCOC1)OC`, the IC50 in assay [1] is more than 100000 nM; in [2] it was 400 nM; in [3], 544 nM; in [4] it was 22000 nM.

For `CN(C)CCCNC(=O)Nc1cc2c(Nc3ccc(F)c(Cl)c3)ncnc2cc1O[C@H]1CCOC1`, the IC50 in assay [1] is 6300 nM; in assay [2] it was 276 nM; in [3], 24 nM; in [4], 226 nM. Besides, the inhibition entry in [5], in [6] and in assay [7] was “Active” throughout. Further, in assay [8], the inhibition result was “Dose-dependent effect”.

Turning to `CN(C)CCN(C)C(=O)Nc1cc2c(Nc3ccc(F)c(Cl)c3)ncnc2cc1O[C@H]1CCOC1`, the IC50 in assay [1] came out at 8200 nM; in assay [2] it was 677 nM; in assay [3] it was 281 nM; in [4], 450 nM.

On to `O=C(NCCN1CCCCC1)Nc1cc2c(Nc3ccc(F)c(Cl)c3)ncnc2cc1O[C@H]1CCOC1`, for which the IC50 in assay [1] came out at 3200 nM; in assay [2], 447 nM; in assay [3] it was 165 nM; in [4] it was 116 nM.

As to `O=C(Nc1cc2c(Nc3ccc(F)c(Cl)c3)ncnc2cc1O[C@H]1CCOC1)N1CCC(N2CCCC2)CC1`, the IC50 was 9600 nM in [1], 1590 nM in [2], 265 nM in [3] and 317 nM in [4].

Turning to `CN(C)CCNC(=O)Nc1cc2c(Nc3ccc(F)c(Cl)c3)ncnc2cc1O[C@H]1CCOC1`, the 50% inhibitory concentration (IC50) was determined as 4700 nM in assay [1], 2080 nM in assay [2], 635 nM in assay [3] and 806 nM in [4].

For `O=C(Nc1cc2c(Nc3ccc(F)c(Cl)c3)ncnc2cc1O[C@H]1CCOC1)N1CCC2(CC1)OCCO2`, the IC50 in assay [1] worked out at 32200 nM; in [2], 5190 nM; in [3], 1720 nM; in [4], 2180 nM.

For the molecule `CS(=O)(=O)CCNC(=O)Nc1cc2c(Nc3ccc(F)c(Cl)c3)ncnc2cc1O[C@H]1CCOC1`, the IC50 in [1] was 35200 nM; in [2], 672 nM; in assay [3], 41 nM; in assay [4], 1570 nM.

As for `O=C(NCCN1CCOCC1)Nc1cc2c(Nc3ccc(F)c(Cl)c3)ncnc2cc1O[C@H]1CCOC1`, the inhibition entry in [9] was “Active”. In addition, the inhibition result in [10] and in [11] was “inactive” in each case. Moreover, the IC50 in assay [1] was determined as 5300 nM; in [2] it was 49 nM; in [3], 82 nM; in assay [4], 307 nM.

In the case of `O=C(Nc1cc2c(Nc3ccc(F)c(Cl)c3)ncnc2cc1O[C@H]1CCOC1)N1CC(O)C1`, the IC50 in assay [1] was determined as 32200 nM; in assay [2], 1420 nM; in assay [3] it was 543 nM; in assay [4] it was 1930 nM.

As to `CCN(CC)CCNC(=O)Nc1cc2c(Nc3ccc(F)c(Cl)c3)ncnc2cc1O[C@H]1CCOC1`, the IC50 worked out at 5200 nM in assay [1], 2240 nM in assay [2], 365 nM in assay [3] and 249 nM in [4].

With `CN(C)C/C=C/C(=O)Nc1cc2c(Nc3ccc(F)c(Cl)c3)ncnc2cc1O[C@H]1CCOC1` [AFATINIB], in assay [1], half-maximal inhibition (IC50) was put at 148 nM.

On to `O=C(Nc1cc2c(Nc3ccc(F)c(Cl)c3)ncnc2cc1O[C@H]1CCOC1)N1CCC(F)(F)C1`, for which the IC50 in assay [1] came to 4500 nM; in assay [2] it was 3120 nM; in assay [3] it was 1580 nM; in assay [4], 1480 nM.

Consider `COCCCNC(=O)Nc1cc2c(Nc3ccc(F)c(Cl)c3)ncnc2cc1O[C@H]1CCOC1`, for which the IC50 stood at 22700 nM in [1], 1660 nM in assay [2], 197 nM in assay [3] and 4100 nM in assay [4].

`O=C(Nc1cc2c(Nc3ccc(F)c(Cl)c3)ncnc2cc1O[C@H]1CCOC1)N1CCC(F)(F)CC1`: the IC50 in assay [1] was 32300 nM; in [2], 5310 nM; in [3], 859 nM; in [4] it was 1860 nM.

Take `O=C(Nc1cc2c(Nc3ccc(F)c(Cl)c3)ncnc2cc1O[C@H]1CCOC1)N1CC(F)C1`: the IC50 in assay [1] was 13400 nM; in assay [2], 2170 nM; in [3] it was 967 nM; in [4], 5780 nM.

For the molecule `O=C(Nc1cc2c(Nc3ccc(F)c(Cl)c3)ncnc2cc1O[C@H]1CCOC1)N1CCC(F)CC1`, the IC50 in assay [1] was 33300 nM; in assay [2], 1820 nM; in assay [3] it was 699 nM; in assay [4] it was 3040 nM.

On to `COC(=O)/C=C/CNC(=O)Nc1cc2c(Nc3ccc(F)c(Cl)c3)ncnc2cc1O[C@H]1CCOC1`, for which the IC50 in [1] was found to be 9600 nM; in assay [2], 265 nM; in [3], 404 nM; in assay [4] it was 1410 nM.

As for `CN(C)CCCN(C)C(=O)Nc1cc2c(Nc3ccc(F)c(Cl)c3)ncnc2cc1O[C@H]1CCOC1`, the IC50 in assay [1] worked out at 3300 nM; in [2], 5260 nM; in assay [3], 464 nM; in assay [4], 200 nM.

Consider `O=C(NCCO)Nc1cc2c(Nc3ccc(F)c(Cl)c3)ncnc2cc1O[C@H]1CCOC1`, for which the IC50 amounted to 17600 nM in assay [1] and 598 nM in [4].

As to `CCN(CC)CCN(C)C(=O)Nc1cc2c(Nc3ccc(F)c(Cl)c3)ncnc2cc1O[C@H]1CCOC1`, the IC50 in assay [1] came out at 8300 nM; in assay [2], 392 nM; in assay [3], 505 nM; in [4], 481 nM.

Take `C#CCNC(=O)Nc1cc2c(Nc3ccc(F)c(Cl)c3)ncnc2cc1O[C@H]1CCOC1`: the IC50 in assay [1] came out at 14800 nM; in [2] it was 374 nM; in assay [3], 232 nM; in [4], 3730 nM.

In the case of `O=C(Nc1cc2c(Nc3ccc(F)c(Cl)c3)ncnc2cc1O[C@H]1CCOC1)N1CCCC(F)(F)C1`, the concentration for half-maximal inhibition (IC50) was determined as 43200 nM in assay [1], 1890 nM in assay [2], 884 nM in assay [3] and 935 nM in assay [4].

Take `O=C(Nc1cc2c(Nc3ccc(F)c(Cl)c3)ncnc2cc1O[C@H]1CCOC1)N1CCC(CCO)CC1`: the IC50 in assay [1] worked out at 25300 nM; in assay [2], 2940 nM; in assay [3], 304 nM; in assay [4] it was 759 nM.
